The species named for one data set is Rattus norvegicus. In words: Concentration at which 80% cultured cells remain viable assessed by MTT staining. Type of data set: functional.
Data set [1] in a line: Partition coefficient (logP). Type of data set: physicochemical. Particulars: octanol/water.
The nature of data set [2]: Pharmacokinetic data in dogs at dose of 1 mg/kg perorally, and the area under curve (AUC) was reported. Type of data set: ADME, organism-based, Canis lupus familiaris. On the set-up: dose 1 mg/kg, route oral. Particulars: dog, in vivo, po.
Data set [3] can be described thus: Half life value of the compound. Conditions: rat. Type of data set: ADME.
Data set [4] can be described thus: Maximal plasma concentration required for pharmacokinetic data in dogs at dose of 1 mg/kg perorally. On the set-up: dose 1 mg/kg, route oral. Type of data set: ADME, organism-based, Canis lupus familiaris. Conditions: dog, po.
For data set [5], the system named is Rat1. The data set is described as follows: Inhibition of anchorage-dependent proliferation of RAT1 v-Ha-ras-transformed cells on poly(HEMA). Type of data set: functional, cell-based. Conditions: Rattus norvegicus.
Data set [6] relates to Rat1. In words: Inhibition of RAT1 v-Ha-ras-transformed cell growth in soft agar. Type of data set: functional. Conditions: Rattus norvegicus.
Data set [7] has as its target Protein farnesyltransferase (Homo sapiens, UniProt P49354+P49356). In words: Inhibition of [3H]FPP incorporation into recombinant Ras-CVIM by human farnesyl transferase. Type of data set: protein-complex assay.
For data set [8], the target named is Geranylgeranyl transferase type I (Homo sapiens, UniProt P49354+P53609). The data set is described as follows: Inhibition of human geranylgeranyltransferase-1. Type of data set: protein-complex assay.

pIC50: −log10 of the molar value.

By IC20 is commonly meant the concentration at which the effect reaches the 20% level. Low values mean an effect from little substance, high ones a need for much substance. The logP is a log measure of how a compound divides between an organic and an aqueous phase. Higher therefore signals higher lipophilicity. What is called AUC is concentration integrated over time. One may read the half-life as the time in which the quantity being followed falls by half. The low end stands for rapid decline, the high end for slow decline. The Cmax is the highest concentration seen after dosing. For orientation: pIC50 means −log10 of the IC50, conventionally taken in molar units. For orientation: IC90 means the concentration at which the effect reaches the 90% level. A lower IC90 goes with greater potency.

On to `CCCC[C@H]1CN(c2cccc(C)c2C)C(=O)CN1Cc1cncn1Cc1ccc(C#N)cc1`, for which it took 50 µM to reach the 20% level in the data set listed under Rattus norvegicus (IC20). In addition, in data set [1], the logP is above 3.7. In addition, the AUC in data set [2] worked out at 0.15 µM·h. The molecule further had a half-life in [3] of 36 min. This molecule also gave a Cmax in [4] of 140 nM. The molecule also had a pIC50 with Rat1 [5] of 4.55. The 90% effect level in the data set on Rat1 [6] (IC90) was put at 1 µM.
`N#Cc1ccc(Cn2cncc2CN2CCN(c3cccc(Cl)c3)CC2)cc1`: in the data set filed under Rattus norvegicus, the IC20 was determined as 25 µM. The negative-log IC50 (pIC50) in data set [7] is 3.60. In data set [1], this molecule yielded a logP above 3.4. Also, the 90% effect level in the data set with Rat1 [6] (IC90) was put at 1 µM.
Turning to `N#Cc1ccc(Cn2cncc2CN2CCN(c3cccc(Cl)c3)CC2=O)cc1`, the IC20 in the data set listed under Rattus norvegicus is above 100 µM. The pIC50 in data set [7] is 4.00. In addition, the logP in data set [1] was 2.51. The AUC in data set [2] stood at 8.58 µM·h. The same molecule gave a half-life in data set [3] of 72 min. In [4], this molecule showed a Cmax of 3140 nM. In the data set with Rat1 [6], the IC90 came out at 1 µM.
In the data set filed under Rattus norvegicus, `N#Cc1ccc(Cn2cncc2C(=O)N2CCN(c3cccc(Cl)c3)C(=O)C2)cc1` showed an IC20 above 100 µM. In addition, in data set [7], the pIC50 is 4.48. Also, the IC90 in the data set with Rat1 [6] came out at 1 µM.
On to `Cc1cccc(N2CCN(Cc3cncn3Cc3ccc(C#N)cc3)CC2=O)c1C`, for which the IC20 in the data set filed under Rattus norvegicus is 10 µM. The pIC50 in data set [7] is 4.96; in the data set on Rat1 [5], 4.08. In addition, the logP in data set [1] amounted to 2. The same molecule registered an exposure (AUC) in [2] of 1.4 µM·h. In addition, in [3], the half-life was 30 min. This molecule came in with a Cmax in data set [4] of 1060 nM. In the data set with Rat1 [6], this molecule yielded an IC90 of 1 µM.
On to `Cc1cccc(N2CCN(Cc3cncn3Cc3ccc(C#N)cc3)C(=O)C2=O)c1C`, for which the IC20 in the data set filed under Rattus norvegicus was determined as 10 µM. Also, in data set [7], the pIC50 is 4.70. The logP in data set [1] was determined as 1.11. The same molecule yielded an AUC in data set [2] of 4.43 µM·h. The molecule further gave a half-life in data set [3] of 60 min. Further, the highest level in [4] (Cmax) was 2290 nM. The molecule further had an IC90 in the data set with Rat1 [6] above 1 µM.
In the data set filed under Rattus norvegicus, `N#Cc1ccc(Cn2cncc2C(=O)N2CCN(c3cccc(Cl)c3)CC2)cc1` had an IC20 above 100 µM. Further, the logP in data set [1] is 2.79. In the data set with Rat1 [6], this molecule returned an IC90 of 0.1 µM.
In the case of `N#Cc1ccc(Cn2cncc2CN2CCN(c3ccccc3)C(=O)C2)cc1`, the pIC50 in data set [8] is 5.06; in data set [7], 5.30. This molecule also displayed a logP in data set [1] of 1.32.
For the molecule `N#Cc1ccc(Cn2cncc2CN2CCN(c3cccc(Cl)c3)C(=O)C2=O)cc1`, the IC20 in the data set filed under Rattus norvegicus is above 100 µM. In data set [7], the pIC50 is 4.96. The same molecule displayed a logP in [1] of 1.24. The molecule also came in with an AUC in data set [2] of 12.5 µM·h. In data set [3], this molecule had a half-life of 132 min. In data set [4], this molecule showed a Cmax of 3110 nM. Moreover, the IC90 in the data set with Rat1 [6] amounted to 1 µM.
On to `CCCC[C@H]1CN(c2cccc(C)c2C)CC(=O)N1Cc1cncn1Cc1ccc(C#N)cc1`, for which the 20% effect level in the data set listed under Rattus norvegicus (IC20) was put at 100 µM. Besides, the pIC50 is 5.89 in data set [7] and 5.60 in the data set on Rat1 [5]. In addition, the logP in data set [1] was above 3.5. Besides, the exposure (AUC) in data set [2] came out at 3.46 µM·h. This molecule gave a half-life in data set [3] of 138 min. Also, the peak level in [4] (Cmax) was 960 nM. In the data set with Rat1 [6], this molecule showed a concentration for an effect of 90% (IC90) of 10 µM.
As for `N#Cc1ccc(Cn2cncc2CN2CCN(c3ccccc3)C(=O)C2=O)cc1`, the values for the pIC50 in [8] and in data set [7] were below 4.70 and 4.80, respectively. Besides, the log partition coefficient (logP) in data set [1] came out at 0.46.
In the case of `CCCC[C@H]1CN(c2cccc(C)c2C)C(=O)C(=O)N1Cc1cncn1Cc1ccc(C#N)cc1`, the IC20 in the data set filed under Rattus norvegicus amounted to 10 µM. In addition, the results for the pIC50 (in data set [7]; with Rat1 [5]) were 5.52 and 4.82, respectively. The logP in [1] came out at 3.3. The same molecule registered an AUC in data set [2] of 4.25 µM·h. This molecule showed a half-life in data set [3] of 54 min. For the same molecule, the concentration in data set [4] peaked (Cmax) at 1950 nM. The same molecule returned an IC90 in the data set on Rat1 [6] of 1 µM.
For the molecule `N#Cc1ccc(Cn2cncc2CN2CC(=O)N(c3ccccc3)CC2=O)cc1`, the pIC50 in [7] was 3.02. The logP in data set [1] was determined as 0.55.
In the data set filed under Rattus norvegicus, `N#Cc1ccc(Cn2cncc2CN2CCN(c3cccc(Cl)c3)C(=O)C2)cc1` [L-778123 FREE BASE] registered an IC20 above 100 µM. In data set [1], this molecule gave a logP of 2.11. Also, in [2], the AUC was determined as 5.3 µM·h. Besides, in data set [3], the half-life is 47.4 min. The molecule also returned a Cmax in data set [4] of 2980 nM. For the same molecule, the 90% effect level with Rat1 [6] (IC90) was put at 0.1 µM.

For the origin of these results see ChEMBL document CHEMBL1134196, “Oxo-piperazine derivatives of N-arylpiperazinones as inhibitors of farnesyltransferase” (Bioorg Med Chem Lett, 2001).
